Consider 17 compounds from ChEMBL document CHEMBL3797165, “Synthesis and biological evaluation of novel 1,2,4-triazine derivatives bearing carbazole moiety as potent α-glucosidase inhibitors” (Bioorg Med Chem Lett, 2016).

Assay [1] in a line: Inhibition of Saccharomyces cerevisiae alpha-glucosidase using para-nitrophenyl-alpha-D-glucopyranoside as substrate preincubated for 15 mins followed by substrate addition measured after 30 mins by spectrophotometric method.
Assay [2] in a line: Non-competitive inhibition of Saccharomyces cerevisiae alpha-glucosidase using para-nitrophenyl-alpha-D-glucopyranoside as substrate preincubated for 15 mins followed by substrate addition measured after 30 mins by Lineweaver-Burk plot analysis.

In the case of `OC(CSc1nnc(-c2ccccc2F)c(-c2ccccc2F)n1)Cn1c2ccc(Br)cc2c2cc(Br)ccc21` (stereo not drawn), the IC50 (as a rule, the point on the concentration scale where inhibition reaches its midpoint) in assay [1] was 12.8 µM.
The compound `OC(CSc1nnc(-c2cccc(Br)c2)c(-c2cccc(Br)c2)n1)Cn1c2ccc(Br)cc2c2cc(Br)ccc21` (stereo not drawn) had an IC50 in assay [1] of 9.56 µM.
Still for that read-out and setting: under `OC(CSc1nnc(-c2cccc(Br)c2)c(-c2cccc(Br)c2)n1)Cn1c2ccccc2c2ccccc21` (stereo not drawn) stands 20.1 µM; under `OC(CSc1nnc(-c2ccco2)c(-c2ccco2)n1)Cn1c2ccc(Cl)cc2c2cc(Cl)ccc21` (stereo not drawn), 9.24 µM.
The same measure, in the same setting: under `OC(CSc1nnc(-c2ccc(F)cc2)c(-c2ccc(F)cc2)n1)Cn1c2ccccc2c2ccccc21` (stereo not drawn) stands 17.6 µM.
`OC(CSc1nnc(-c2ccco2)c(-c2ccco2)n1)Cn1c2ccc(Br)cc2c2cc(Br)ccc21` (stereo not drawn) returned an IC50 in assay [1] of 4.27 µM. Moreover, the Ki (usually the equilibrium dissociation constant of an inhibitor or competing ligand from its target) in assay [2] was 4.43 µM.
For the compound `O=[N+]([O-])c1ccc2c(c1)c1ccccc1n2CC(O)CSc1nnc(-c2ccccc2)c(-c2ccccc2)n1` (stereo not drawn), the midpoint of inhibition in assay [1], the IC50, lay at 25 µM.
`OC(CSc1nnc(-c2ccccc2)c(-c2ccccc2)n1)Cn1c2ccccc2c2ccccc21` (stereo not drawn) registered a half-inhibitory concentration (IC50) in assay [1] of 31.3 µM.
In assay [1], `OC(CSc1nnc(-c2ccccc2)c(-c2ccccc2)n1)Cn1c2ccc(Br)cc2c2cc(Br)ccc21` (stereo not drawn) showed an IC50 of 19.3 µM.
For `OC(CSc1nnc(-c2ccco2)c(-c2ccco2)n1)Cn1c2ccccc2c2ccccc21` (stereo not drawn), the IC50 in assay [1] came out at 17.7 µM.
`OC(CSc1nnc(-c2ccccc2)c(-c2ccccc2)n1)Cn1c2ccc(Cl)cc2c2cc(Cl)ccc21` (stereo not drawn) had a half-maximal inhibitory concentration (IC50) in assay [1] of 27.8 µM.
On to `OC(CSc1nnc(-c2ccccc2Cl)c(-c2ccccc2Cl)n1)Cn1c2ccccc2c2ccccc21` (stereo not drawn), for which it took 47.8 µM to reach half-maximal inhibition in assay [1] (IC50).
Regarding `OC(CSc1nnc(-c2cccc(Br)c2)c(-c2cccc(Br)c2)n1)Cn1c2ccc(Cl)cc2c2cc(Cl)ccc21` (stereo not drawn), the IC50 in assay [1] is 19.2 µM.
Still for that read-out and setting: under `OC(CSc1nnc(-c2cccc(F)c2)c(-c2cccc(F)c2)n1)Cn1c2ccc(Cl)cc2c2cc(Cl)ccc21` (stereo not drawn) stands 33.1 µM; under `OC(CSc1nnc(-c2ccccc2F)c(-c2ccccc2F)n1)Cn1c2ccccc2c2ccccc21` (stereo not drawn), 21.1 µM; under `C[C@@H]1O[C@@H](O[C@@H]2[C@@H](O)[C@H](O)[C@H](O[C@H]3[C@H](O)[C@@H](O)C(O)O[C@@H]3CO)O[C@H]2CO)[C@@H](O)[C@H](O)[C@H]1N[C@H]1C=C(CO)[C@@H](O)[C@H](O)[C@H]1O` (stereo partly drawn), 996 µM.
In the case of `O=[N+]([O-])c1ccc2c(c1)c1ccccc1n2CC(O)CSc1nnc(-c2ccccc2F)c(-c2ccccc2F)n1` (stereo not drawn), in assay [1], 22.1 µM corresponded to half-maximal inhibition (IC50).
